Source: patent US7094533B1, “Therapeutic and diagnostic applications of prostatic acid phosphatase in prostate cancer” (Board of Regents of the University of Nebraska, priority 1999, dated 2006)
Like-named read-outs stand apart in the source and are kept apart here.

Legend:
PAcP = biological target: T1, PAcP (Homo sapiens, UniProt P15309); settings: 20 nM okadaic acid; cited from earlier work
T1 sequence (P15309 33-386): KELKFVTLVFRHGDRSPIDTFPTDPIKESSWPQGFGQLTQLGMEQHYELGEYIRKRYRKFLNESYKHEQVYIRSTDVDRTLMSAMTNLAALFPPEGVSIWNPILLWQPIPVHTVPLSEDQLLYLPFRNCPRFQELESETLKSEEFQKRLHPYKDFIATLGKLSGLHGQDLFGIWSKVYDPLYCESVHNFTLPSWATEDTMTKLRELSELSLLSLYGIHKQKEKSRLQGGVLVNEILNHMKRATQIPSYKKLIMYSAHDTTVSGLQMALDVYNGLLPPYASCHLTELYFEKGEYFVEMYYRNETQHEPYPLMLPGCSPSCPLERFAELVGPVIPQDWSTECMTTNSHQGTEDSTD

cellular PAcP = settings: clone 33 LNCaP cells exposed to DHT (FIG. 3B)
Source text: (§1) Cells were harvested for preparation of total RNA and total cell lysate proteins as described below.
Western Blot Analysis. Subconfluent cells were trypsinized, pelleted, and rinsed with Hepes-buffered saline, pH 7.0, and then lysed in a hypotonic cell lysis buffer containing various protease inhibitors as described above. […] The relative levels of AR and PAcP protein were semiquantified by densitometric analyses of autoradiograms with different exposure time periods utilizing Molecular Dynamics equipment and software program.

PSA mRNA = settings: each clone of LNCaP cells (33, 51, 81), 10 nM DHT, 3 days
Source text: as §1

[1] = test system: LNCaP-23 and LNCaP-34 cells; settings: LNCaP-23 and LNCaP-34 versus clone 81 parent and LNCaP-CMV cells, different concentrations of DHT (FIG. 5D)
Protocol: (§2) Androgen Effect on Cell Growth, Protein Tyrosine Phosphorylation, PSA, and PAcP Expression. Cells were plated at a density of approximately 1×10^4 cells/cm^2 in RPMI 1640 medium containing 7% FBS and maintained in a 37° C. incubator (5% CO^2) for 3 days (Lin et al., 1992, Cancer Res. 52, 4600–4607; Lin et al., 1993, Arch. Biochem. Biophys. 300:384–390; both are incorporated by reference herein). To investigate androgen effect on cell growth and protein tyrosine phosphorylation, cells that had been maintained in the steroid-reduced medium containing 5% heat-inactivated dialyzed FBS for an additional 48 h were grown in fresh steroid-reduced medium in the presence or absence of different concentrations of DHT. After a time period specified in each set of experiments, cells were harvested and then counted using a hemocytometer or Coulter Counter (Lin et al., 1992, Cancer Res. 52, 4600–4607; Lin et al., 1994, Differentiation 57:143–149; incorporated by reference herein). The cell number in the control well was defined as ratio 1.0.

PC-411 and PC-416 cells = settings: p<0.05 (FIG. 6D)
Protocol: as §2

DU145 cells = settings: counted at day 3 (FIG. 1A)
Source text: (§3) Cell Cultures. Human prostate carcinoma cell lines, LNCaP-FGC (LNCaP) (Horoszewicz et al., 1983, Cancer Res. 43:1809–1818), DU145 (Stone et al., 1978, Int. J. Cancer 21:274–281), and PC-3 (Kaighn et al., 1979, Invest. Urol. 17:16–23), were originally obtained from the American Type Culture Collection (Rockville, Md.) and routinely maintained in RPMI 1640 medium supplemented with 7% FBS, 1% glutamine, and 0.5% gentamicin, as described previously (Lin et al., 1992, Cancer Res. 52, 4600–4607; Lin et al., 1986, Mol. Cell. Biol. 6:4753–4757). Cultured cells were fed twice per week and trypsinized once per week; one passage equals one trypsinization. […] For experiments, LNCaP cells that had passage numbers less than 33 were designated as clone 33, passage numbers over 80 as clone 81, and passage numbers between 34 and 80 as clone 51. To investigate basal growth rates of different subcloned cells, cells were seeded and maintained in steroid-reduced medium containing 5% heat-inactivated dialyzed FBS. To quantify cell growth, attached cells were trypsinized and neutralized with medium-FBS. The total cell number including the suspended and attached cells were counted using a hemocytometer via trypan blue exclusion or a Coulter Counter Z1 model (Lin et al., 1992, Cancer Res. 52, 4600–4607; Lin et al., 1994, Differentiation 57:143–149).
as §2
(§4) In FIG. 1A, the total cell number was counted at day 3 for PC-3 and DU145 cells and at day 4 fro LNCaP cells.

clone 33 LNCaP cells = settings: 10 nM DHT
Source text: as §3, §2, §4

PC-3 cells = settings: counted at day 3 (FIG. 1A)
Source text: as §3, §2, §4

clone 81 LNCaP cells = settings: 10 nM DHT, 7-day treatment, clone 81 LNCaP (FIG. 2A)
Source text: as §3, §2, §4

PAcP mRNA in LNCaP cells = test system: PAcP mRNA in LNCaP cells
Source text: Nuclear run-on experiment. […] Transcription was continued in the presence of “P-labeled UTP (Amersham. Life Science Inc.). The radioactive RNA was hybridized with a slot blot membrane containing the full length of PAcP cDNA.

[2] = test system: human AR cDNA-transfected PC-3 cells; settings: 10 nM R1881, 24 h, human AR cDNA-transfected PC-3 cells (FIG. 6A)
Protocol: Chloramphenicol Acetyltransferase Assay. Cells that had been grown in medium containing 5% charcoal-stripped FBS were transfected with the pMSG-CAT reporter plasmid, pSG5 vector DNA, or pSG5-AR plasmid by the liposome-mediated transfection method (Lin et al., 1992, Cancer Res. 52, 4600–4607; Felgner et al., 1987, Proc. Natl. Acad. Sci. U.S.A. 84:7413–7417). After a 24-h incubation period, cells were maintained in medium supplemented with 5% steroid-reduced FBS in the presence or absence of 10 nM R1881, a synthetic androgen, in ethanol (0.01%, v/v). After an additional 24-h incubation, CAT assays were performed as described (Felgner et al., 1987, Proc. Natl. Acad. Sci. U.S.A. 84:7413–7417; Moszowicz et al., 1993, Mol. Endocrinol. 7:1861–869).

DU 145 cells = assay: Chloramphenicol acetyltransferase assay (pMSG-CAT reporter); format: cell-based, human; settings: 10 nM R1881, DU 145 cells
Source text: (§5) Chloramphenicol Acetyltransferase Assay.

AR in PC-3 cells = assay: as above; format: cell-based, human; settings: 10 nM R1881, 24 h, PC-3 cell lysate proteins (FIG. 6A)
Source text: as §5

PC-416 cells = assay: Anchorage-independent growth, soft agar analysis; format: cell-based, human; settings: PC-416 cells (FIG. 9C)
Protocol: (§6) Anchorage-independent growth. Anchorage-independent growth of prostate cancer cells was performed by soft agar analysis (Weiner et al., 1989, Oncogene 4:1175–1183; Horoszewicz et al., 1983, Cancer Res. 43:1809–1818). Briefly, cells were seeded in 0.25% agarose on the top of a base layer containing 0.6% agarose. One day after seeding, cell clumps containing more than one cell were excluded and the colony number was counted after 3 weeks of incubation.

[3] = test system: PAcP cDNA transfected C-81 LNCaP cells; assay: Anchorage-independent growth, soft agar analysis; format: cell-based, human; settings: LNCaP-23, -28, -40 cells, colonies after 3 weeks (FIG. 9B)
Protocol: as §6

LNCaP xenograft tumors [4] = assay: Subcutaneous xenograft tumors in female athymic mice, LNCaP cells; format: in vivo; settings: for mice that did not develop any tumor: female, after 100 days of inoculation; for averaged tumor size: 70 days
Protocol: (§7) Xenograft animal experiments. The protocol for the subcutaneous xenograft animal model in athymic mice was essentially as that described in Lin et al., 1995 (The Prostate 26:194–204). For comparing the tumorigenicity of different LNCaP cells, 1×10^6 cells were suspended in 0.1 ml medium, mixed with 0.1 ml matrigel (Collaborative Biomedical, MA), and injected subcutaneously in the hind flank of male mice. For examining the hormone effect on tumor development, 5×10^5 cells in matrigel were injected into female mice. For the PC-3 cell system, 1×10^6 cells in 0.2 ml medium suspension without matrigel were injected into male mice. The animal maintenance and the tumor measurement were followed the NIH guidelines and the specific guideline by the University of Nebraska Medical Center as previously described (Lin et al., 1995, The Prostate 26:194–204).

PC-3 xenograft tumors = assay: Subcutaneous xenograft tumors in male athymic mice, PC-3 cells; format: in vivo; settings: for xenograft tumor size as % of PC-3 xenograft tumors: 42 days; for xenograft tumor size: 42 days after cell injection (PC-3 612 mm^3)
Protocol: as §7

LNCaP xenograft tumors [5] = assay: Subcutaneous xenograft tumors in male athymic mice, LNCaP cells; format: in vivo; settings: 28 days after inoculation (C-81 LNCaP 241)
Protocol: as §7

In the case of C=C1[C@@H](O)[C@@H]2O[C@]3(CC[C@H](/C=C/[C@@H](C)[C@@H]4CC(C)=C[C@@]5(O[C@H](C[C@@](C)(O)C(=O)O)CC[C@H]5O)O4)O3)CC[C@H]2O[C@@H]1[C@@H](O)C[C@H](C)[C@H]1O[C@@]2(CCCCO2)CC[C@H]1C [okadaic acid], the “effect on PAcP activity” value (PAcP) is listed as “not affected”.

With C[C@]12CCC(=O)C[C@@H]1CC[C@@H]1[C@@H]2CC[C@]2(C)[C@@H](O)CC[C@@H]12 [DHT, 5α-dihydrotestosterone] the “cellular PAcP level” value (cellular PAcP) was “diminished level”, the “induction of PSA mRNA, normalized to GAPDH” value (PSA mRNA) was 2–3 fold and the “degree of androgen stimulation of cell growth” value [1] was “enhanced”. For the same molecule, the “effect on cell growth” value (PC-411 and PC-416 cells) was “stimulated significantly”, the “effect on cell growth” value (DU145 cells) was “did not have a significant effect” and the “stimulatory effect on cell growth” value (clone 33 LNCaP cells; 7-day treatment, clone 33 LNCaP (FIG. 2A)) was at most 2.5 fold. The “stimulation of cell growth” value (clone 33 LNCaP cells; clone 33 LNCaP, steroid-reduced medium, counted at day 4 (FIG. 1A)) was 1.5–2 fold, the “effect on cell growth” value (PC-3 cells) was “did not have a significant effect” and the “stimulation of cell growth” value (clone 81 LNCaP cells) was about 20%. For the same molecule, the “transcription of PAcP mRNA” value (PAcP mRNA in LNCaP cells; high density LNCaP cells (FIG. 11B)) was “suppressed” and the “transcription of PAcP mRNA” value (PAcP mRNA in LNCaP cells; low density LNCaP cells (FIG. 11B)) was “stimulated”.

With C[C@]1(O)CC[C@H]2[C@@H]3CCC4=CC(=O)CCC4=C3C=C[C@@]21C [R1881] the “stimulation of the CAT activity” value [2] was about 9 fold, the “effect on the CAT activity” value (DU 145 cells) was “did not have an effect” and the “stimulation of the CAT activity” value (AR in PC-3 cells) was about 2 fold.

B1: cellular PAcP: cellular form of human prostatic acid phosphatase, expressed from full-length human PAcP cDNA driven by a pCMV-neo expression vector (protein)
chain: T1 sequence (P15309 33-386)
For B1, the anchorage-independent growth (PC-416 cells) was “diminished”, the “decrease of anchorage-independent growth” value [3] was “more than 100 folds” and the tumor induction (LNCaP xenograft tumors [4]; LN-23 and LN-40 cells, female mice, 35 days after inoculation (clone-81 782 mm^3)) was “no detectable tumor”. For the same molecule, the “mice that did not develop any tumor” value (LNCaP xenograft tumors [4]; LN-23 mice) was 20%, the averaged tumor size (LNCaP xenograft tumors [4]; LN-23 tumors, female mice) was 347 mm^3 and the “mice that did not develop any tumor” value (LNCaP xenograft tumors [4]; LN-40 mice) was 50%. The averaged tumor size (LNCaP xenograft tumors [4]; LN-40 tumors, female mice) was 214 mm^3, the “xenograft tumor size as % of PC-3 xenograft tumors” value (PC-3 xenograft tumors; PC-412, male mice) was “about 38%” and the xenograft tumor size (PC-3 xenograft tumors; PC-412, male mice) was 233 mm^3. The “xenograft tumor size as % of PC-3 xenograft tumors” value (PC-3 xenograft tumors; PC-416, male mice) was about 23%, the xenograft tumor size (PC-3 xenograft tumors; PC-416, male mice) was 138 mm^3 and the averaged tumor size (LNCaP xenograft tumors [5]; LN-23 cells) was 143 mm^3. The averaged tumor size (LNCaP xenograft tumors [5]; LN-34 cells) was 115 mm^3.
